{"source": "the supplement of paper PMC10307832", "assay_in_all_cases": "relative viability (nuclei count vs DMSO), 5 days (fraction); higher = more cells survive", "key": {"[1]": {"compound": "Cc1ccc2nc(NCCN)c3ncc(C)n3c2c1 + CS(=O)(=O)CCNCc1ccc(-c2ccc3ncnc(Nc4ccc(OCc5cccc(F)c5)c(Cl)c4)c3c2)o1 [Lapatinib] (partner 2 µM)", "how_it_was_run": "(§1)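 Lung cancer cell lines were pin-tool dosed in 1536-well plates on the day after seeding, with either a lone drug or a fixed anchor-drug dose plus five library-drug doses (not always all listed) in √10 steps. Nuclei were counted on 4× images after 5 days. Relative viability is the ratio of treated-well to vehicle-well nuclei counts, with each value a median of duplicate plates.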"}, "Salubrinal + Trametinib": {"compound": "O=C(/C=C/c1ccccc1)NC(NC(=S)Nc1cccc2cccnc12)C(Cl)(Cl)Cl [Salubrinal] + CC(=O)Nc1cccc(-n2c(=O)n(C3CC3)c(=O)c3c(Nc4ccc(I)cc4F)n(C)c(=O)c(C)c32)c1 [Trametinib] (partner 0.02 µM)", "how_it_was_run": "as §1"}, "[2]": {"compound": "Cc1ccc2nc(NCCN)c3ncc(C)n3c2c1 + C[C@]1(O)C[C@@H](c2nc(-c3ccc4ccc(-c5ccccc5)nc4c3)c3c(N)nccn32)C1 [Linsitinib] (partner 1 µM)", "how_it_was_run": "as §1"}, "Salubrinal + Vorinostat": {"compound": "O=C(/C=C/c1ccccc1)NC(NC(=S)Nc1cccc2cccnc12)C(Cl)(Cl)Cl [Salubrinal] + O=C(CCCCCCC(=O)Nc1ccccc1)NO [Vorinostat] (partner 1 µM)", "how_it_was_run": "as §1"}}}
{"cell line": "UMC-11", "values": [{"measurement": "relative viability", "setting": "[1]; first compound 0.04 µM", "result": 1.03}, {"measurement": "relative viability", "setting": "[1]; first compound 0.1265 µM", "result": 1.04}, {"measurement": "relative viability", "setting": "[1]; first compound 0.4 µM", "result": 0.877}, {"measurement": "relative viability", "setting": "[1]; first compound 1.265 µM", "result": 0.898}, {"measurement": "relative viability", "setting": "[1]; first compound 4 µM", "result": 0.91}, {"measurement": "relative viability", "setting": "Salubrinal + Trametinib; first compound 0.08 µM", "result": 0.468}, {"measurement": "relative viability", "setting": "Salubrinal + Trametinib; first compound 0.253 µM", "result": 0.749}, {"measurement": "relative viability", "setting": "Salubrinal + Trametinib; first compound 0.8 µM", "result": 0.741}, {"measurement": "relative viability", "setting": "Salubrinal + Trametinib; first compound 2.53 µM", "result": 0.775}, {"measurement": "relative viability", "setting": "Salubrinal + Trametinib; first compound 8 µM", "result": 0.826}, {"measurement": "relative viability", "setting": "[2]; first compound 0.04 µM", "result": 1.03}, {"measurement": "relative viability", "setting": "[2]; first compound 0.1265 µM", "result": 0.94}, {"measurement": "relative viability", "setting": "[2]; first compound 0.4 µM", "result": 1}, {"measurement": "relative viability", "setting": "[2]; first compound 1.265 µM", "result": 1.12}, {"measurement": "relative viability", "setting": "[2]; first compound 4 µM", "result": 0.956}, {"measurement": "relative viability", "setting": "Salubrinal + Vorinostat; first compound 0.08 µM", "result": 0.349}, {"measurement": "relative viability", "setting": "Salubrinal + Vorinostat; first compound 0.253 µM", "result": 0.404}, {"measurement": "relative viability", "setting": "Salubrinal + Vorinostat; first compound 0.8 µM", "result": 0.38}, {"measurement": "relative viability", "setting": "Salubrinal + Vorinostat; first compound 2.53 µM", "result": 0.334}, {"measurement": "relative viability", "setting": "Salubrinal + Vorinostat; first compound 8 µM", "result": 0.398}]}
